Experimental findings from patent publication US7998952B2, “Thiolactams and uses thereof” (Millennium Pharmaceuticals, Inc., priority 2008, dated 2011) are described below.

The structures appear in SMILES notation. pIC50: −log10 of the molar value.

The target of the assay is T1, recombinant human PLK1[2-369]T210D (Homo sapiens, UniProt P53350, T210D).
T1 construct: recombinant human PLK1[2-369]T210D; Smt (SUMO) fusion partner (N, cleaved yes); host or cells: E. coli
T1 sequence (P53350 2-369 T210D): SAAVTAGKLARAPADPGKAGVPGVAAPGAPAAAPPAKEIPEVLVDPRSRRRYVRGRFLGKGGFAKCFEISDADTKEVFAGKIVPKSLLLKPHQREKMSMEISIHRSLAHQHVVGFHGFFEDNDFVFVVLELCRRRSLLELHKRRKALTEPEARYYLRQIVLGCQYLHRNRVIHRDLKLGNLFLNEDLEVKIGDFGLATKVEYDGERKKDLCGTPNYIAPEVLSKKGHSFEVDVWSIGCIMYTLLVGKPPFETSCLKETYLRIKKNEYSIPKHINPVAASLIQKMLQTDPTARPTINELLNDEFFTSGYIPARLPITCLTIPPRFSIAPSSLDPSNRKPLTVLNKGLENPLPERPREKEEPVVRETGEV
The experiment in a line: PLK1 DELFIA Kinase Assay. In kind it is biochemical. As to conditions: 50 μM ATP, 2 μM peptide substrate, 0.3 nM enzyme, 90 minutes at room temperature. On the procedure: Recombinant human PLK1 was expressed in E. coli as an N-terminal Smt fusion protein using a proprietary vector (pSGX4) by Structural Genomics (SGX). The fusion partner was removed through cleavage with Ulp1 after an initial purification using a Ni2+ affinity column.
PLK1 DELFIA® Kinase Assay
The enzymatic reaction mixture, with or without PLK inhibitors, was incubated 90 minutes at room temperature before termination with 50 μL of STOP buffer containing 1% BSA, 0.05% Tween20, 100 mM EDTA. 50 μL of the stopped enzyme reaction mixture was transferred to a Neutravidin-coated 384-well plate (Pierce) and incubated at room temperature for 60 minutes. […] The wells were washed and then the bound europium was liberated using 50 μL of Enhancement Solution (Perkin Elmer). Quantification of europium was done using a Pherastar (BMG Labtech)
Turning to `Cc1nc(N(C)CCCN(C)C)ccc1Nc1ncc2c(n1)-c1ccc(C(F)(F)F)cc1NC(=S)C2` [Compound I-88, 2-({6-[[3-(dimethylamino)propyl](methyl)amino]-2-methylpyridin-3-yl}amino)-9-(trifluoromethyl)-5,7-dihydro-6H-pyrimido[5,4-d][1]benzazepine-6-thione], the pIC50 was > 8.30.

On to `Cc1nc(NCCN(C)C)ccc1Nc1ncc2c(n1)-c1ccc(Cl)cc1NC(=S)C2` [Compound I-97, 9-chloro-2-[(6-{[2-(dimethylamino)-ethyl]amino}2-methylpyridin-3-yl)amino]-5,7-dihydro-6H-pyrimido[5,4-d][1]benzazepine-6-thione], for which the pIC50 is 7.60 to 8.30.

Consider `Cc1ncc(CCCN(C)C)cc1Nc1ncc2c(n1)-c1ccc(C#N)cc1NC(=S)C2` [Compound I-79, 2-({5-[3-(dimethylamino)propyl]-2-methylpyridin-3-yl}amino)-6-thioxo-6,7-dihydro-5H-pyrimido[5,4-d][1]benzazepine-9-carbonitrile], for which the pIC50 is 7.60 to 8.30.

With `Cc1nc(C(=O)NC2CCN(C)CC2)ccc1Nc1ncc2c(n1)-c1ccc(Cl)cc1NC(=S)C2` [Compound I-116, 5-[(9-chloro-6-thioxo-6,7-dihydro-5H-pyrimido[5,4-d][1]benzazepin-2-yl)amino]-6-methyl-N-(1-methylpiperidin-4-yl)pyridine-2-carboxamide], the pIC50 is 7.60 to 8.30.

Consider `Cc1ncc(CCNC2CCCC2)cc1Nc1ncc2c(n1)-c1ccc(Cl)cc1NC(=S)C2` [Compound I-30, 9-chloro-2-({5-[2-(cyclopentylamino)ethyl]-2-methylpyridin-3-yl}amino)-5,7-dihydro-6H-pyrimido[5,4-d][1]benzazepine-6-thione], for which the pIC50 is < 7.60.

`Cc1ncc(CCN2CCC(N(C)C)C2)cc1Nc1ncc2c(n1)-c1ccc(Cl)cc1NC(=S)C2` (stereo not shown) [Compound I-15, 9-chloro-2-[(5-{2-[3-(dimethylamino)pyrrolindin-1-yl]ethyl}-2-methylpridin-3-yl)amino]-5,7-dihydro-6H-pyrimido[5,4-d][1]benzazepine-6-thione]: the pIC50 is > 8.30.

For the molecule `Cc1ncc(CCN2CCCC(N(C)C)C2)cc1Nc1ncc2c(n1)-c1ccc(Cl)cc1NC(=S)C2` (stereo not shown) [Compound I-34, 9-chloro-2-[(5-{2-[3-(dimethylamino)piperidin-1-yl]ethyl}-2-methylpyridin-3-yl)amino]-5,7-dihydro-6H-pyrimido[5,4-d][1]benzazepine-6-thione], the pIC50 was > 8.30.

For the molecule `CN1CCN(CCc2cncc(Nc3ncc4c(n3)-c3ccc(Cl)cc3NC(=S)C4)c2)CC1` [Compound I-51, 9-chloro-2-({5-[2-(4-methylpiperazin-1-yl)ethyl]pyridin-3-yl}amino)-5,7-dihydro-6H-pyrimido[5,4-d][1]benzazepine-6-thione], the pIC50 is > 8.30.

Consider `Cc1nc(N2CCCC2)ccc1Nc1ncc2c(n1)-c1ccc(C(F)(F)F)cc1NC(=S)C2` [Compound I-110, 2-[(2-methyl-6-pyrrolidin-1-ylpyridin-3-yl)amino]-9-(trifluoromethyl)-5,7-dihydro-6H-pyrimido[5,4-d][1]benzazepine-6-thione], for which the pIC50 is 7.60 to 8.30.

Regarding `Cc1ncc(C2CCN(C)CC2)cc1Nc1ncc2c(n1)-c1ccc(Cl)cc1NC(=S)C2` [Compound I-14, 9-chloro-2-{[2-methyl-5-(1-methylpiperidin-4-yl)pyridin-3-yl]amino}-5,7-dihydro-6H-pyrimido[5,4-d][1]benzazepine-6-thione], the pIC50 is > 8.30.

As to `Cc1ncc(CCN2CCCCC2)cc1Nc1ncc2c(n1)-c1ccc(Cl)cc1NC(=S)C2` [Compound I-54, 9-chloro-2-{[2-methyl-5-(2-piperidin-1-ylethyl)pyridin-3-yl]amino}-5,7-dihydro-6H-pyrimido[5,4-d][1]benzazepine-6-thione], the pIC50 is > 8.30.

As to `Cc1nc2c(cc1Nc1ncc3c(n1)-c1ccc(C(F)(F)F)cc1NC(=S)C3)CCCN2` [Compound I-115, 2-[(2-methyl-5,6,7,8-tetrahydro-1,8-naphthyridin-3-yl)amino]-9-(trifluoromethyl)-5,7-dihydro-6H-pyrimido[5,4-d][1]benzazepine-6-thione], the pIC50 is > 8.30.

`Cc1nc(N2CCC(N(C)C)CC2)ccc1Nc1ncc2c(n1)-c1ccc(C(F)(F)F)cc1NC(=S)C2` [Compound I-29, 2-({6-[4-(dimethylamino)piperidin-1-yl]-2-methylpyridin-3-yl}amino)-9-(trifluoromethyl)-5,7-dihydro-6H-pyrimido[5,4-d][1]benzazepine-6-thione]: the pIC50 was > 8.30.

On to `Cc1ncc(N2CCN(C)CC2)cc1Nc1ncc2c(n1)-c1ccc(Cl)cc1NC(=S)C2` [Compound I-103, 9-chloro-2-{[2-methyl-5-(4-methylpiperazin-1-yl)pyridin-3-yl]amino}-5,7-dihydro-6H-pyrimido[5,4-d][1]benzazepine-6-thione], for which the pIC50 is > 8.30.

For the molecule `Cc1ncccc1Nc1ncc2c(n1)-c1cc(CCCN(C)C)c(Cl)cc1NC(=S)C2` [Compound I-93, 9-chloro-10-[3-(dimethylamino)propyl]-2-[(2-methylpyridin-3-yl)amino]-5,7-dihydro-6H-pyrimido[5,4-d][1]benzazepine-6-thione], the pIC50 is 7.60 to 8.30.

In the case of `Cc1nc(N(C)C2CCN(C)C2)ccc1Nc1ncc2c(n1)-c1ccc(C(F)(F)F)cc1NC(=S)C2` (stereo not shown) [Compound I-95, 2-({2-methyl-6-[methy(1-methylpyrrolidin-3-yl)amino]pyridin-3-yl}amino)-9-(trifluoromethyl)-5,7-dihydro-6H-pyrimido[5,4-d][1]benzazepine-6-thione], the negative logarithm of the IC50 (pIC50) was > 8.30.

For `Cc1ncc(CCN2CCCCC2)cc1Nc1ncc2c(n1)-c1ccc(C(F)(F)F)cc1NC(=S)C2` [Compound I-87, 2-{[2-methyl-5-(2-piperidin-1-ylethyl)pyridin-3-yl]amino}-9-(trifluoromethyl)-5,7-dihydro-6H-pyrimido[5,4-d][1]benzazepine-6-thione], the pIC50 was > 8.30.

Turning to `Cc1ncc(CCN2CCN(C)CC2)cc1Nc1ncc2c(n1)-c1ccc(Cl)cc1NC(=S)C2` [Compound I-6, 9-chloro-2-({2-methyl-5-[2-(4-methylpiperazin-1-yl)ethyl]pyridin-3-yl}amino)-5,7-dihydro-6H-pyrimido[5,4-d][1]benzazepine-6-thione], the pIC50 is > 8.30.

As to `Cc1nc2c(cc1Nc1ncc3c(n1)-c1ccc(C(F)(F)F)cc1NC(=S)C3)CN(C)CC2` [Compound I-86, 2-[(2,6-dimethyl-5,6,7,8-tetrahydro-1,6-naphthyridin-3-yl)amino]-9-(trifluoromethyl)-5,7-dihydro-6H-pyrimido[5,4-d][1]benzazepine-6-thione], the pIC50 was > 8.30.

On to `Cc1nc(NCC2CCN(C)CC2)ccc1Nc1ncc2c(n1)-c1ccc(C(F)(F)F)cc1NC(=S)C2` [Compound I-65], for which the negative-log IC50 (pIC50) was > 8.30.

Turning to `Cc1nc(NC2CCNCC2)ccc1Nc1ncc2c(n1)-c1ccc(Cl)cc1NC(=S)C2` [Compound I-85, 9-chloro-2-{[2-methyl-6-(piperidin-4-ylamino)pyridin-3-yl]amino}-5,7-dihydro-6H-pyrimido[5,4-d][1]benzazepine-6-thione], the pIC50 was > 8.30.

Regarding `CN1CCN(c2cncc(Nc3ncc4c(n3)-c3ccc(Cl)cc3NC(=S)C4)c2)CC1` [Compound I-107, 9-chloro-2-{[5-(4-methylpiperazin-1-yl)pyridin-3-yl]amino}-5,7-dihydro-6H-pyrimido[5,4-d][1]benzazepine-6-thione], the negative-log IC50 (pIC50) is > 8.30.

As a reminder, the pIC50 is the negative decadic logarithm of the IC50, by convention in mol/L.
